# Patent US20210340130A1, “Compositions and methods for treating attention deficit disorders” (priority 2016, published 2021)
# Like-named read-outs stand apart in the source and are kept apart here.
# How the values were obtained:
# [1] = test system: perforant path / dentate gyrus of the hippocampus (fEPSPs); experiment: Effect on evoked fEPSPs in rat hippocampus (anesthetized animals, in vivo); set-up: species or system Rat (Long Evans); details: for Minimum Effective Dose: IP, dose range 5-20 mg/kg; for duration of the fEPSP effect: about 2 hours monitoring, CX717 at 20 mg/kg; for effect on evoked fEPSP / maximum increase in fEPSP amplitude: intraperitoneal administration
# Procedure: Further selection and characterization of ampakines to identify anti-ADHD drugs useful within the invention involved electrophysiological studies (to measure “electrically evoked field excitatory postsynaptic potentials” (fEPSPs) for test compounds). CX717 and CX1739 were tested for their ability to facilitate synaptic responses in vivo in anesthetized animals following peripheral administration. Stimulating and recording electrodes were inserted into the perforant path and dentate gyrus of the hippocampus, respectively. Electrically evoked field excitatory postsynaptic responses (fEPSPs) were measured before administration of ampakines, and for approximately 2 hours following intraperitoneal administration of ampakines.
# Electrically evoked field excitatory postsynaptic potentials (fEPSPs) were determined for the exemplary test ampakines CX717 and CX1739 as described. […] The response magnitude was related to the plasma levels achieved during the study. […] Both ampakines appear to produce a 25% maximum increase in fEPSP amplitude.
# [2] = test system: aged Rhesus macaque monkeys; experiment: Delayed match-to-sample test; type: in vivo, Monkey (Rhesus); details: for Minimum Effective Dose: PO
# Procedure: Further elucidating the potent behavioral and cognitive effects of exemplary ampakines useful within the invention, additional studies using the well known Monkey Delayed Match to Sample assay were conducted. CX1739 was evaluated using aged Rhesus macaque monkeys (18 to 33 years old), undertaking the delayed match-to-sample (DMTS) task. The stimuli included red, blue, or yellow rectangles. A trial was initiated by presentation of a sample rectangle composed of one of the three colors. The sample rectangle remained in view until the monkey touched within its borders to initiate a pre-programmed delay (retention) interval. Following the delay interval, two choice rectangles were presented, with one of the two choice colors being the color matching the stimulus and the other (incorrect) color as one of the two remaining colors. A correct (matching) choice was reinforced. Non-matching choices were neither reinforced nor punished. The duration for each delay interval was adjusted for each subject until […] of group performance accuracy approximated zero delay (85-100% of trials answered correctly), short delay interval (75-84% correct), medium delay interval (65-74% correct), and long delay interval (55-64% correct). The inter-trial interval was 5 seconds and each session consisted of 96 trials.
# [3] = test system: hippocampal slices (CA1 population spikes)
# Procedure: Slice Seizure Assay In these studies extracellular field potentials recording (Population Spikes) in hippocampal slices were used to determine convulsant activity (potential seizure liability). Transverse 300-400 μm hippocampal slices were taken from adult male Sprague-Dawley rats (4-6 week old) and incubated in a submerge slice recording chamber system for 30 to 60 min. The chamber was perfused with oxygenated artificial cerebral spinal fluid (ACSF) comprising (in mM): NaCl 124, KCl 3.0, KH2PO4 1.25, CaCl2.34, MgSO4 2.5, NaHCO3 26 and glucose 10 at room temperature. Population Spike (PS) recordings were made with glass electrodes filled with 2 M NaCl (1-5 megaohm) places in the region of pyramidal cell body of CA1. Electrical stimuli were produced with twisted bipolar nichrome wire electrodes in the Schaffer-commissural fiber afferents. Population spike was induced by activating Schaffer-commissural fiber using single pulse stimulation with delivered at 0.05 Hz. The maximal amplitude of PS was determined by increase stimulating intensity till second spike appears. Then the intensity was decreased to induce a 50% to 60% of maximal response. The amplitude of PS was measured for each response and plotted against time. At same time the amplitude of second PS and/or number of PS was measured and plotted against time. The size of the second PS and numbers of PS were used to estimate the seizure potential or seizure state. With 20 to 50 min stable baseline established testing compound was perfused for 10 to 20 min at each concentration to observe the effect. […] The perfusion then was switched to control ACSF and continued to record until drug effect was washed back to the baseline. CX717 and CX1739 exemplary test ampakine compounds were prepared by dissolving in DMSO and then added to ACSF.
# The upper 3 panels of FIG. 5 show amplitudes for PS 1, 2 and 3 m respectively. Lower panel is the measurement of the number of PS.
# [4] = test system: hippocampal LTP (hilus of the dentate gyrus); experiment: Effect on induction of LTP in rat hippocampus (anesthetized rat, in vivo); set-up: species or system Rat (Long Evans); details: for Minimum Effective Dose: IP
# Rat (SD) = experiment: Amphetamine-stimulated locomotion and rearing in rats; type: in vivo; details: for Minimum Effective Dose: PO, dose range 1-10 mg/kg
# Procedure: Effects of exemplary low impact ampakines were also evaluated in mice for the ability to inhibit amphetamine-stimulated locomotor activity. Mice were placed in the locomotor chamber for 20 min to habituate, removed, injected with either vehicle or anti-ADHD ampakine (CX717), and 5 min later injected with 2 mg/kg i.p. Amphetamine. Mice were returned to the locomotor chamber 10 min later, and their activity measured for a further 15 min. In related studies, adult male CD1 mice or male Sprague-Dawley rats were acclimated in a test chamber for 20 minutes removed and dosed i.p. (mice) or orally (rats) with CX1739, vehicle, or a reference compound. Five (mice) or 10 (rats) were then injected with amphetamine (2 mg/kg, i.p.) or saline vehicle and were returned to the activity test chamber.
Structure (SMILES),Minimum Effective Dose [1],duration of the fEPSP effect [1],effect on evoked fEPSP [1],maximum increase in fEPSP amplitude [1],Minimum Effective Dose [2],seizure activity (population spikes) ([3]; concentrations up to 600 uM),"enhancement of hippocampal LTP relative to baseline ([4]; 2 mg/kg, after the tetanus, P<0.01)",Minimum Effective Dose [4],amphetamine-stimulated locomotion activity (Rat (SD); 3 mg/kg),amphetamine-stimulated rearing (Rat (SD); 1 and 3 mg/kg),Minimum Effective Dose (Rat (SD)),"performance with medium or long delays ([2]; oral, 45 min prior to testing)","mean accuracies during short delay trials relative to vehicle ([2]; oral, 45 min prior to testing, particularly the two higher doses, persisted at 24 hours)","task accuracy at the Best Dose ([2]; sessions 45 min after administration, P=0.027, restricted to long delay trials)",seizure activity (population spikes) ([3]; 100 μM for 20 min and then 200 μM for another 20 min),amplitude of the first PS ([3]; 100 μM then 200 μM perfusion),"effect on LTP ([4]; 3 mg/kg, p<0.01)","amphetamine-stimulated rearing behavior (Rat (SD); rats, all doses tested)"
"O=C(c1ccc2nonc2c1)N1CCOCC1 [CX717, 1-(benzofurazan-5-ylcarbonyl)morpholine]",5 mg/kg,plateaued for the duration of monitoring,long-lasting increase in the evoked fEPSP in a concentration-dependent manner,~25%,0.8 mg/kg,did not display seizure activity,200%,2 mg/kg,significant decrease,inhibits rearing,1 mg/kg,–,–,–,–,–,–,–
"CN(C(=O)c1ccc2nonc2c1)C1CCOCC1 [CX1739, N-Methyl-N-tetrahydro-2H-pyran-4-yl-[2,1,3]-benzoxadiazole-5-carboxamide]",5 mg/kg,declined to baseline after two hours,substantial increase in EPSP amplitude,~25%,0.3 mg/kg,–,–,3 mg/kg,–,–,1 mg/kg,did not improve performance,increased,statistically significant increase in task accuracy,no sign of seizure activity,did not change the amplitude of the first PS,statistically significant increase in LTP,modest reduction
